Results taken from US8597904B2, “Pharmaceutical compositions for the treatment of conditions responsive to proteasome inhibition” (priority 2007, dated 2013).
Residues, ends and D or L forms follow the SMILES beside them. *: point of attachment. Cbz = O=C(OCc1ccccc1)*

Assays:
[1] = target: T1, proteasome activity in SK-N-SH neuroblastoma cells (Homo sapiens, UniProt P28074); test: Proteasome-Glo cell-based luminescent assay; conditions: 2 hours incubation
T1 construct: endogenous in cells; host or cells: SK-N-SH
T1 sequence (P28074 60-263): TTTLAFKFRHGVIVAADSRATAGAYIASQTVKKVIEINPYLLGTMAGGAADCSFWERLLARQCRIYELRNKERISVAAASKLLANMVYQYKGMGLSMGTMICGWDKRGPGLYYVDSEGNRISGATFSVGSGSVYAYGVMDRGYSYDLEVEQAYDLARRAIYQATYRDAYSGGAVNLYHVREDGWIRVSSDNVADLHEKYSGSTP
Procedure: Syringolin A was tested as a proteasome inhibitor in vivo in cultured mammalian cancer cells. Inhibition of proteasome activity in human SK-N-SH neuroblastoma cells was measured using the Proteasome-Glo™ cell-based luminescent assay (Promega) in solid white 96-well microtiter cell culture plates. Ten μl of syringolin A (at various concentrations) was added to each well containing SK-N-SH cells (plated at a concentration of 1.0×10^5 cells/ml in 90 μl well volumes 24 hours prior) and a negative control and media only control were included. Cells were incubated with 1-100 μM syringolin A for 2 hours or 24 hours, and then equilibrated to room temperature for 15 minutes before 100 μl of Proteasome-Glo reagent (containing bioluminescent substrate Suc-LLVY-aminoluciferin) was added to the cells. Luminescence (indicated as relative luminescence units [RLU]) was read after 15-30 minutes on a Dynex MLX Luminometer.
To trace the kinetics of proteasome inhibition in the presence of syringolin, the same experiment was performed, but in this case, 100 μl of Proteasome-Glo reagent was added to cells first, followed by the addition of syringolin A at various concentrations, and the proteasome activity was measured over time.
The cell culture-based proteasome inhibition assay was performed as previously described (Groll et al. 2008. Nature 452:755-758, which is incorporated herein by reference in its entirety). Briefly, wells of white-walled 96-well microtiter cell culture plates were seeded at a density of 1×10^4 cells/well (SK-N-SH) or 5×10^3 cells/well (SKOV3) in 90 μl. After 24 hours, 10 μl GlbA or SylA were added at increasing concentrations (0-100 μM) and incubated for 2 hours. […] Cell Death Differ 9:1017-1025; Meng, et al. 1999. PNAS 96:10403-10408, each of which is incorporated herein by reference in its entirety) were used as positive and negative controls, respectively. Microtiter plates were then equilibrated to room temperature for 15 min before adding 100 μl of proteasome Glo™ reagent (containing bioluminescent substrate Suc-LLVY-aminoluciferin) per well. Luminescence was measured on a Dynex MLX luminometer, according to the manufacturer's instructions (Promega).

[2] = tested on: poly (ADP-ribose) polymerase (PARP); test: Western blot of PARP cleavage in SK-N-SH cells; assay type: cell-based, human; conditions: Example 15, single agent
Procedure: The induction of an apoptotic response in cancer cells by the addition of syringolin A was verified by monitoring the cleavage of poly (ADP-ribose) polymerase (PARP), a common response during apoptosis. SK-N-SH cells were cultured in the presence or absence of 20 μM syringolin A for 0, 24 and 48 hours, and cell lysates were then generated as described in Example 4 and probed for the presence of PARP by Western blotting using rabbit polyclonal anti-PARP (#9542) (diluted 1:1000) and the HRP-linked anti-rabbit secondary antibody described in Example 4. The results were representative of four independent experiments. […] The treatment of cells for 48 hours further increased the levels of cleaved PARP, whereas noncleaved PARP disappeared. In a similar manner, syringolin A induced PARP cleavage in SKOV3 cells, but noncleaved PARP was still detected 48 hours after treatment (FIG. 5B).
The role of glidobactin A (GlbA) in apoptosis and its correlation with autophagy has not previously been examined. Therefore, in a series of experiments, cell lysates of SK-N-SH cells were treated with GlbA in the presence and absence of the autophagy inhibitor 3-methyladenine (3-MA) and probed for poly ADP-ribose polymerase (PARP). The cleavage of PARP produces a smaller 89 kDa fragment which is indicative of late apoptosis.

[3] = tested on: microtubule-associated protein 1 light chain 3 (LC3); test: immunoblot of LC3 conversion (autophagy) in SK-N-SH cells; assay type: cell-based, human; conditions: compared to untreated control cells
Procedure: To verify whether autophagy is induced in GlbA-treated cells, levels of microtubule-associated protein 1 light chain 3 (LC3), a reliable marker of autophagosomes, were measured. […] Therefore, this characteristic conversion of LC3 can be used to monitor autophagic activity. SK-N-SH cells were treated with GlbA in the presence or absence of 3-MA, and cell lysates were probed with LC3.

SK-N-SH cells = test: Cytox-Glo cytotoxicity assay; assay type: cell-based, human; conditions: light microscope, 48 hours
Procedure: Determination of potential cytotoxic effects by GlbA and/or […] was carried out by using the Cytox-Glo cytotoxicity assay, which measures “dead cell proteases” from cells that have lost membrane integrity. Briefly, cells were treated with a single concentration of compound for 48 hours in a final volume of 100 μl, after which 50 μl of AAF-Glo luminogenic peptide substrate (alanyl-alanyl-phenylalanyl-aminoluciferin) was added to each well and incubated for 15 min at room temperature. The luminescence was measured by a Dynex MLX luminometer to give a reading of cells with damaged membranes. Next, 50 μl of digitonin was added to each well and the samples incubated for 15 minutes at room temperature. Luminescence was measured a second time to determine total cell number. Controls included cells with vehicle only, media, and media with compound.
SK-N-SH cells were treated with 0.25 μM GlbA or 25 μM SylA and SKOV3 cells were treated with 1.0 μM GlbA or 25 μM SylA. As illustrated in FIGS. 16A and 16B, control cells (treated with DMSO and H2O representing GlbA and SylA controls, respectively) were viable and no cytotoxicity was detected.
To determine if autophagy plays a role in GlbA/SylA-induced cell death, levels of cytotoxicity in cells pre-treated with 3-methyladenine (3-MA), an established autophagy inhibitor, were measured using the assay described in Example 12.

[4] = target: T2, human erythrocyte 20S proteasomes, chymotrypsin-like activity (Homo sapiens, UniProt P28074); assay type: biochemical
T2 construct: which contains human erythrocyte 20S proteasomes; purchased BIOMOL International AK-740; host or cells: human erythrocytes
Procedure: A 100 μl reaction volume contained 2 μg/ml 20S proteasome, 100 μM substrate, and the desired concentrations of syringolin A in dilution buffer (50 mM Tris-HCl, pH 7.5, 25 mM KCl, 10 mM NaCl, 1 mM MgCl2). Epoximicin and MG132 (BIOMOL® International) were used as test inhibitors. The release of free AMC (7-amino-4-methylcoumarin) at 37° C. was monitored with an MWGt Sirius HT fluorescence microplate reader (BIO-TEK® Instruments) equipped with a 360 nm excitation and a 460 nm emission filter. Proteolytic activities were measured as the increase in relative fluorescence units (RFU) over time (FIG. 7A-C). […] The initial velocities (vi) were determined from the time derivative of these curves and plotted versus the corresponding inhibitor concentration ([I]). […] Using SigmaPlot, the data were fitted to the hyperbolic equation vi=c+[v0/(Ki′+[I])], where v0 is the velocity of the control. […] The rate of covalent inhibition (kassociation), which equals kobs/[I] was calculated over the range of inhibitor concentrations given in parentheses in FIG. 7D. Values in FIG. 7D represent means±standard deviation.
The fluorogenic substrates Suc-LLVY-AMC, Boc-LRR-AMC, and Z-LLE-AMC (BIOMOL® International) were used to monitor chymotrypsin-like, trypsin-like, and caspase-like activities, respectively. […] The release of free AMC (7-amino-4-methylcoumarin) at 37° C. was monitored with an MWGt Sirius HT fluorescence microplate reader (BIO-TEK® Instruments) equipped with a 360 nm excitation and a 460 nm emission filter.

Papaya latex papain = target: T3, Papaya latex papain (Carica papaya, UniProt P00784); test: SensoLyte Green Protease Fluorometric Assay, papain inhibition; assay type: biochemical; conditions: syringolin A up to 500 μM
T3 construct: Papaya latex papain (Sigma-Aldrich); purchased Sigma-Aldrich; host or cells: papaya latex
T3 sequence (P00784 134-345): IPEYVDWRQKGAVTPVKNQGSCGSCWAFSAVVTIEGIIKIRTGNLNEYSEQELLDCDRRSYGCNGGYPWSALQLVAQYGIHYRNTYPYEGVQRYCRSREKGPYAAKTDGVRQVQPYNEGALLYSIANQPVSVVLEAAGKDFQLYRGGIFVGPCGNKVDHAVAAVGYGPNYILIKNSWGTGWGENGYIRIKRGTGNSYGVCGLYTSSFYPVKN
Procedure: (§1) To test the specificity of syringolin A inhibition of proteasome activities, bovine pancreas trypsin (Pierce) and Papaya latex papain (Sigma-Aldrich) inhibition assays with syringolin A were performed with the SensoLyte™ Green Protease Fluorometric Assay Kit (AnaSpec., San Jose, Calif., USA) according to the instructions of the manufacturer. Reaction volumes of 100 μl contained an enzyme concentration of 200 ng/ml and various amounts of test inhibitors. Protease activity was monitored at 33° C. in a FluoroCount Microplate Fluorometer (FluoroCount, Packard, Canberra, Australia) using 485 nm excitation and a 550 nm emission filters.

bovine pancreas trypsin = target: T4, bovine pancreas trypsin (Bos taurus, UniProt P00760); test: SensoLyte Green Protease Fluorometric Assay, trypsin inhibition; assay type: biochemical; conditions: syringolin A up to 500 μM
T4 construct: bovine pancreas trypsin (Pierce); purchased Pierce; host or cells: bovine pancreas
T4 sequence (P00760 24-246): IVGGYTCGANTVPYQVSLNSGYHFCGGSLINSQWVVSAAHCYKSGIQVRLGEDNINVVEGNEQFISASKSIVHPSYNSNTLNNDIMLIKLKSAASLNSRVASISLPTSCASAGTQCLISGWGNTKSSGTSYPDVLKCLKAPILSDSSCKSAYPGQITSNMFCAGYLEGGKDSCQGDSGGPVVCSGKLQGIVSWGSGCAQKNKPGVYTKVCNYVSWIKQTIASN
Procedure: as §1

Compound: C/C=C/C/C=C/CCC(=O)[C@H]1O[C@H]1C(N)=O [cerulenin, reference compound]
- proteasome activity in cells [1]: does not significantly inhibit proteasome activity

Compound: Cn1cnc(N)c2ncnc1-2 [3-MA, 3-methyladenine, reference compound]
- PARP cleavage [2]: had no effect on PARP cleavage
- LC3-II amount / conversion of LC3 [3]: did not alter the conversion of LC3
- cell proliferation and killing, 3-MA control cells (SK-N-SH cells): suppresses SK-N-SH cell proliferation without killing cells

Compound: glidobactin A
- proteasome chymotrypsin-like activity ([4]; 500-fold dilution of 10× concentrated HPLC peak): reduced proteasome activity to background levels

Compound: CC(C)C[C@@H](C=O)NC(=O)[C@H](CC(C)C)NC(=O)[C@H](CC(C)C)NC(=O)OCc1ccccc1 [MG-132, reference compound] (Cbz-Leu-Leu-Leu-aldehyde)
- papain activity (Papaya latex papain): also inhibits cysteine proteases
- trypsin activity (bovine pancreas trypsin): trypsin inhibitor
- mode of proteasome inhibition (reaction velocity over time) [4]: reversible
